Test [1] relates to chemically-induced spontaneous pain evoked by intraplantar injection of formalin. Description: Formalin test, model of acute tonic pain (Example 7). Type of test: in vivo. The following applies: rat, 1 min prior to formalin. As for the experimental part: Male Sprague-Dawley rats are housed together in groups of three animals under standard conditions with unrestricted access to food and water. All experiments are conducted according to the ethical guidelines for investigations of experimental pain in conscious animals (Zimmerman, 1983).
Assessment of formalin-induced flinching behavior in normal, uninjured rats (body weight 200-300 g) is made after formalin (2.5% in saline, 50-100 μl, s.c.) is injected into the plantar surface of the hindpaw using a 27 G needle. Rats are pretreated with test compounds either administered intravenously (IV), by subcutaneous injection (SC) or by orally (PO).
Nociceptive behavior is determined manually every 5 min by measuring the amount of time spent in each of four behavioral categories: 0, treatment of the injected hindpaw is indistinguishable from that of the contralateral paw; 1, the injected paw has little or no weight placed on it; 2, the injected paw is elevated and is not in contact with any surface; 3, the injected paw is licked, bitten, or shaken. A weighted nociceptive score, ranging from 0 to 3 is calculated by multiplying the time spent in each category by the category weight, summing these products, and dividing by the total time for each 5 min block of time. (Coderre et al., Pain 1993; 54: 43). On the basis of the resulting response patterns, […] of nociceptive behavior are identified and scored: first phase (P1; 0-5 min), interphase (Int; 6-15 min), second phase (P2; […]), phase 2A (P2A; 16-40 min) and phase 2B (P2B; 41-60 min).
Statistical analysis is performed using the Prism™ 4.01 software package (GraphPad, San Diego, Calif., USA). The difference in response levels between treatment groups and control vehicle group is analyzed using an ANOVA followed by Bonferroni's method for post-hoc pair-wise comparisons. A p value <0.05 is considered to be significant.

In test [2] the target is T1, recombinant homomeric hASIC1a channels (Homo sapiens, UniProt P78348).
T1 construct: expressed in transfected cells; host or cells: Xenopus laevis oocytes (nuclear microinjection of expression vector such as pcDNA3)
T1 sequence (P78348 1-528): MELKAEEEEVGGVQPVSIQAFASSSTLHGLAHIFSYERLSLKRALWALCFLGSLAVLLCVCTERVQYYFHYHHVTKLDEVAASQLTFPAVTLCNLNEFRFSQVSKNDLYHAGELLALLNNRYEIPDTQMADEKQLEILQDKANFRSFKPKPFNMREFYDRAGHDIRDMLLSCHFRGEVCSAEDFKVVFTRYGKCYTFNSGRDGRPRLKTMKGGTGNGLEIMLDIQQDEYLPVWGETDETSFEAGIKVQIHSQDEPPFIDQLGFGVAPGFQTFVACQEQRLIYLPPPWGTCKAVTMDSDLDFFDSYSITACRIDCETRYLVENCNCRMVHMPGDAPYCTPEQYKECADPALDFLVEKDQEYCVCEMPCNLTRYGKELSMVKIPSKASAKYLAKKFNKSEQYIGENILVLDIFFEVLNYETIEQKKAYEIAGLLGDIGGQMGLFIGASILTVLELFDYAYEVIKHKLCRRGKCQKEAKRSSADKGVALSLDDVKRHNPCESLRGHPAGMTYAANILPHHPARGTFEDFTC
Description: Two-electrode voltage clamp in Xenopus laevis oocytes expressing gated ion channels (Example 4). Type of test: cell-based. A general note: Two-electrode voltage clamp holds a large cell at a set potential and records current.

Test [3] relates to acute paw inflammation caused by intraplantar injection of λ-carrageenan. Description: Carrageenan model for pain (Example 8). The class given is in vivo. Conditions: rat, 30 and 100 mg/kg SC, 4 h post-carrageenan. As for the experimental part: Acute inflammatory hyperalgesia is induced in rats by unilateral injection of 150 μl of a 3% solution of λ-carrageenan into the plantar surface of the left hind paw 3-5 hours prior to testing. Thermal hyperalgesia, mechanical allodynia, mechanical hyperalgesia, weight bearing asymmetry and paw inflammation were determined. Rats are pretreated with test compounds either administered intravenously (IV), by subcutaneous injection (SC) or by oral gavage (PO).
Thermal nociceptive thresholds are determined according to the method described elsewhere (Hargreaves et al., 1988). Briefly, through the glass surface, a radiant heat source (8V, 50 W projector bulb) is focused onto the plantar surface of the hind paw. The rat's paw-withdrawal latency to this stimulus is recorded to the nearest 0.1 s. Each latency score is an average of three trials, which are separated by at least 5 min. In all rats, both the injured and uninjured hind paws are similarly tested, allowing direct comparisons between inflamed and non-inflamed paws. […]
Mechanical hyperalgesia is determined by measuring the difference of withdrawal thresholds in response to increasing pressure in the inflamed vs contralateral paw using the Randall-Sellito Paw pressure meter (IITC Life Science) (Randall L O and Sellito J J., 1957). Briefly, rats are held in a contention jacket suspended by a stand and allowed to acclimate for 10 min. Then the tips of the paw pressure applicator are positioned close to the middle of the plantar and the dorsal area of the paw, avoiding the saphenous nerve innervations and an increasing pressure is applied until the rat removes it. Measures are performed in triplicate for each paw by alternating each paw with an interval of at least 1 min to avoid sensitization. […]
Carrageenan induced paw oedema is measured with a plethysmometer (IITC Life Science). Briefly, a mark is made on the ankles of the rat and the ipsi and contralateral paw are submerged 3 times into water up to the mark in order to determine the paw volume by calculation of water displacement.

For the compound `Cc1cc(OC2CCN(Cc3ccccc3)CC2)c2cc(O)ccc2n1` [Compound 13, 4-(1-benzylpiperidin-4-yloxy)-2-methylquinolin-6-ol], the “pain intensity as evaluated by the licking behavior” value in test [1] (SC, 2.5, 7.5, 25 and 75 mg/kg, FIG. 5A) was “dose-dependent reduction”. In addition, in test [1] (SC, FIG. 5B, read-out: ED50 (number of licking and biting episodes in phase IIa of the formalin test)), the ED50 was approximately 6 mg/kg. Moreover, in test [2] (Table 1, generated using oocytes as in Example 4), the IC50 lay in the range of 0.1 to 10 µM. Moreover, in test [2] (acid-induced inward currents in oocytes injected with hASIC1a cDNA, FIGS. 2A-2C), the “reduction in the current evoked by a mild pH stimulation” value is recorded as “clear dose-dependent reduction”. Besides, in test [3] (1 min prior to carrageenan), the mechanical hyperalgesia entry was “dose-dependently reversed”, the “size of the inflammation” value was “reduced” and the thermal hyperalgesia result is “dose-dependently reversed”.
`Cc1ccc(-c2nc(Nc3ccc(C(=O)O)cc3)c3cc(Cl)ccc3n2)cc1` [Compound 124]: in test [3] (30 min prior to carrageenan), the mechanical hyperalgesia result is given as “dose-dependently reversed”, the “size of the inflammation” value was “reduced” and the thermal hyperalgesia result is listed as “dose-dependently reversed”.

Usually ED50 stands for the midpoint of the dose-response relation. Usually IC50 stands for the concentration that gives 50% inhibition.

The values are drawn from US20090023773A1, “COMPOSITIONS AND METHODS FOR MODULATING GATED ION CHANNELS” (PainCeptor Pharma Corporation, priority 2007, published 2009).
